pEC50, pIC50: −log10 of the molar value.
Experiments:
[1] = target: Myc proto-oncogene protein (Homo sapiens, UniProt P01106); test: Inhibition of human c-Myc assessed as reduction in c-Myc/Max/Ebox DNA complex formation using pre-formed complex of c-Myc and biotinylated DNA containing single Ebox-sequence followed by compound addition and further addition of his6-tagged c-Max and incubated for 2 hrs by AlphaScreen assay; conditions: for pIC50: read-out: IC50
[2] = test system: NCI-H2171; test: Cytotoxic activity against human NCI-H2171 cells assessed as reduction in cell viability incubated for 3 days by ATPlite assay; assay type: functional, cell-based; conditions: for pEC50: read-out: EC50
[3] = test system: MM1.S; test: Cytotoxic activity against human MM1S cells assessed as reduction in cell viability incubated for 3 days by ATPlite assay; assay type: functional, cell-based; conditions: for pEC50: Homo sapiens, MM1.S, 72 h, read-out: EC50; for EC50: mm1.s

Sequence of Myc proto-oncogene protein (P01106 whole entry): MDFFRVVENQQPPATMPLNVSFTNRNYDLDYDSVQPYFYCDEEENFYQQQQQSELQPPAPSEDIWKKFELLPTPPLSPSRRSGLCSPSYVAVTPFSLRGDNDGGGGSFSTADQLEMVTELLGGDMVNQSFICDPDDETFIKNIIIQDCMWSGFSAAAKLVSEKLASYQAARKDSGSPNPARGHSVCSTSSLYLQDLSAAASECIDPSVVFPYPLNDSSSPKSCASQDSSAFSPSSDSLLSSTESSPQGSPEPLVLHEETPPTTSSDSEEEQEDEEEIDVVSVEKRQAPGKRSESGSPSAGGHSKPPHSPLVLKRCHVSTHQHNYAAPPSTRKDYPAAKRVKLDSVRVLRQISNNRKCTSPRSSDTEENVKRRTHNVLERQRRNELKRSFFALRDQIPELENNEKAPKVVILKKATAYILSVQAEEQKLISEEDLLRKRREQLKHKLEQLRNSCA

Compound	EC50 ([2]; nci-h2171)	EC50 [3]	also measured
Cc1ccc(C)n1-c1cc(C(=O)O)ccc1C(=O)O	Not Active	–	pIC50 [1]: 6.10
CC(=O)OCOC(=O)c1ccccc1-n1c(C)ccc1C	–	–	pEC50 [3]: 4.15 to 4.28; pEC50 ([2]; Homo sapiens, NCI-H2171, 72 h): 4.52 to 4.68
Cc1ccc(C)n1-c1ncccc1C(=O)O	–	Not Active	–
Cc1ccc(C)n1-c1ccccc1C(N)=O	–	–	IC50 [1]: Not Active
Cc1ccc(C)n1-c1cc(C(=O)N/N=C/c2ccc3cccnc3n2)ccc1C(=O)O	Not Active	–	–
Cc1ccc(C)n1-c1cc(C(=O)N/N=C/c2ncc[nH]2)ccc1C(=O)O	–	Not Active	–
Cc1ccc(C)n1-c1ccc(C(=O)O)c(O)c1	–	–	pEC50 [3]: 2.84 to 3.29; pEC50 ([2]; Homo sapiens, NCI-H2171, 72 h): 3.29 to 3.72
CN1CCN(c2ccccc2C(=O)O)CC1	–	Not Active	–
Cc1ccc(C)n1-c1cc(C(=O)NN)ccc1C(=O)O	–	–	pEC50 [3]: 2.91 to 3.20; pEC50 ([2]; nci-h2171): 4.36 to 8.44
COC(=O)c1ccc(-n2c(C)ccc2C)cc1O	Not Active	Not Active	–
Cc1c2ccccc2c(C)n1-c1ccccc1C(=O)O	Not Active	Not Active	–
CC(=O)OCOC(=O)c1ccccc1-n1ccnc1C	–	–	IC50 [1]: Not Active
Cc1ccc(C)n1-c1cc(C(=O)N/N=C/c2ccccc2N2CCOCC2)ccc1C(=O)O	Not Active	Not Active	pIC50 [1]: 5.15
Cc1ccc(C)n1-c1cc(C(=O)N/N=C\c2ccc(C(=O)O)s2)ccc1C(=O)O	–	Not Active	–
Cc1ccc(C)n1-c1cc(C(=O)N/N=C/c2ccc(O)cc2)ccc1C(=O)O	Not Active	Not Active	–
CC(=O)OCOC(=O)c1ccc(-n2c(C)ccc2C)cc1O	–	–	pEC50 [3]: 3.35 to 4.96; pEC50 ([2]; Homo sapiens, NCI-H2171, 72 h): 4.18 to 5.55

Compound	EC50 ([2]; nci-h2171)	EC50 [3]	also measured
Cc1ccc(C)n1-c1ccc(C(=O)O)cc1O	–	Not Active	–
Cc1c(C)c(C)n(-c2ccccc2C(=O)O)c1C	–	–	pIC50 [1]: 4.08
Cc1ccc(C)n1-c1cc(C(=O)N/N=C/c2ccc(N(C)C)cc2)ccc1C(=O)O	Not Active	–	–
Cc1ccc(C)n1-c1cc(C(=O)N2CCOCC2)ccc1C(=O)O	–	Not Active	–
Cc1ccc(C)n1-c1cc(C(=O)N/N=C/c2ccc3ccccc3n2)ccc1C(=O)O	Not Active	–	–
CC(=O)OCOC(=O)c1ccc(C(=O)N/N=C/c2ccc(O)c(O)c2O)cc1-n1c(C)ccc1C	–	–	pEC50 [3]: 4.83; pEC50 ([2]; Homo sapiens, NCI-H2171, 72 h): 5.65
Cc1ccc(C)n1-c1cc(C(=O)N/N=C/c2c[nH]c3cc(F)ccc23)ccc1C(=O)O	–	Not Active	–
CC(=O)Oc1cc(-n2c(C)ccc2C)ccc1C(=O)O	–	–	IC50 [1]: Not Active
Cc1ccc(C)n1-c1cc(C(=O)N/N=C/c2c[nH]cn2)ccc1C(=O)O	Not Active	Not Active	–
Cc1ccc(C)n1-c1cc(C(=O)NNC(=O)c2cccc(C(=O)O)c2)ccc1C(=O)O	Not Active	Not Active	–
Cc1ccc(C)n1-c1cc(C(=O)N/N=C/c2c[nH]c3ccc(C#N)cc23)ccc1C(=O)O	–	–	pEC50 [3]: 5.24; pEC50 ([2]; Homo sapiens, NCI-H2171, 72 h): 2.49
Cc1ccc(C)n1-c1ccc(C(=O)O)c([N+](=O)[O-])c1	Not Active	–	–
Cc1ccc(C)n1-c1cnccc1C(=O)O	Not Active	–	–
Cc1ccc(C)n1-c1cc(C(=O)N/N=C/c2ccc(S(=O)(=O)O)o2)ccc1C(=O)O	–	Not Active	–
Cc1ccc(C)n1-c1cc(C(=O)N/N=C/c2ccc(-c3cncnc3)cc2)ccc1C(=O)O	Not Active	Not Active	–
